Measured values from patent US20240425523A1, “Compounds for the Degradation of EGFR Kinase” (Beigene Switzerland GMBH, priority 2023, published 2024).

How the values were obtained:
Assay type in all cases: cell-based
[1] = target: T1, EGFR-L858R/C797S (H1975-clone #8 cells) (Homo sapiens, UniProt P00533, C797S/L858R); test: Cell degradation of EGFR, HTRF assay, H1975-clone#8 (L858R/C797S) cells; details: 16 h treatment; for DC50: EGFR degradation; for Dmax: maximum percentage of degradation
T1 construct: expressed in transfected cells; host or cells: H1975 (endogenous EGFR knocked out, clone #8)

[2] = target: T2, p-EGFR L858R (BaF3-L858R cells) (Homo sapiens, UniProt P00533, L858R); test: Cell p-EGFR inhibition assay, HTRF, BaF3-L858R cells; details: 16 h treatment; for Imax (%): maximum percentage of pEGFR inhibition; for IC50: pEGFR inhibition
T2 construct: host or cells: BaF3
Method in brief: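 BaF3-L858R cells treated 16 h at 37 °C, 5% CO2 with compound from 10 uM top, 5-fold dilutions, 8 doses, in 0.1% DMSO medium. Lysates read overnight by HTRF p-EGFR antibodies; IC50 fitted to four-parameter curve against DMSO high control.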

[3] = target: p-EGFR Del19/C797S (H1975-clone #23 cells) (Homo sapiens, UniProt P00533); test: Cell p-EGFR inhibition assay, HTRF, H1975-clone#23 (DEL19/C797S) cells; details: 16 h treatment; for Imax (%): maximum percentage of pEGFR inhibition; for IC50: pEGFR inhibition
Method in brief: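 Phospho-EGFR read by overnight HTRF on lysates, normalized to DMSO-treated high control; IC50, Hill slope and Imax fitted. Compounds were applied for 16 h (10 uM top, 5-fold steps, 8 doses) to an H1975 single clone carrying only exogenous Del19/C797S EGFR after sgRNA knockout of endogenous copies.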

[4] = target: T3, EGFR L858R (BaF3-L858R cells) (Homo sapiens, UniProt P00533, L858R); test: Cell degradation of EGFR, HTRF assay, BaF3-L858R cells; details: 16 h treatment; for DC50: EGFR degradation; for Dmax: maximum percentage of degradation
T3 construct: host or cells: BaF3
Method in brief: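 EGFR L858R levels measured by HTRF antibody pair in lysed BaF3-L858R cells after 16 h compound exposure (8-point 5-fold series from 10 uM final, 37° C). Degradation is relative to DMSO-only cells; DC50 fitted with Hill equation, Dmax taken as the largest percent loss.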

Row | Compound | DC50 [1] [nM] | Dmax [1] [%] | Imax (%) [2] [%] | IC50 [2] [nM] | Imax (%) [3] [%] | IC50 [3] [nM] | DC50 [4] [nM] | Dmax [4] [%]
1 | Cc1cc2cc(n1)-c1c(C)nn(C)c1OC[C@H]1CC[C@H](C1)CN1/C(=N/C2=O)Nc2ccc(N3CCN(CC4CN(c5cc(F)c([C@H]6CCC(=O)NC6=O)c(F)c5)C4)CC3)cc21 [Example 199, (R)-3-(2,6-difluoro-4-(3-((4-((7^1R,7^3S,E)-1^1,1^3,2^6-trimethyl-3-oxo-5^2,5^3-dihydro-1^1H,5^1H-9-oxa-4-aza-5(2,1)-benzo[d]imidazola-2(2,4)-pyridina-1(4,5)-pyrazola-7(1,3)-cyclopentanacyclononaphane-5^6-yl)piperazin-1-yl)methyl)azetidin-1-yl)phenyl)piperidine-2,6-dione] | 2.28 | 91.8 | 99.05 | < 0.128 | 102.91 | 2.92 | 6.02 | 82.5
2 | Cc1cc2cc(n1)-c1c(C)nn(C)c1OC[C@H]1CC[C@H](C1)CN1/C(=N/C2=O)Nc2ccc(N3CCC(NC4CN(c5c(F)cc(OC6CCC(=O)NC6=O)cc5F)C4)CC3)cc21 (stereo partly shown) [Example 158, 3-(3,5-difluoro-4-(3-((1-((7^1R,7^3S,E)-1^1,1^3,2^6-trimethyl-3-oxo-5^2,5^3-dihydro-1^1H,5^1H-9-oxa-4-aza-5(2,1)-benzo[d]imidazola-2(2,4)-pyridina-1(4,5)-pyrazola-7(1,3)-cyclopentanacyclononaphane-5^6-yl)piperidin-4-yl)amino)azetidin-1-yl)phenoxy)piperidine-2,6-dione] | 4.39 | 77.3 | 95.45 | 72.6 | 100.46 | 3.65 | 3.75 | 79.8
3 | Cc1cc2cc(n1)-c1c(C)nn(C)c1OC[C@H]1CC[C@H](C1)CN1/C(=N/C2=O)Nc2ccc(N3CCN(CCC4CCN(c5cc(F)c([C@H]6CCC(=O)NC6=O)c(F)c5)CC4)CC3)cc21 [Example 183, (R)-3-(2,6-difluoro-4-(4-(2-(4-((7^1R,7^3S,E)-1^1,1^3,2^6-trimethyl-3-oxo-5^2,5^3-dihydro-1^1H,5^1H-9-oxa-4-aza-5(2,1)-benzo[d]imidazola-2(2,4)-pyridina-1(4,5)-pyrazola-7(1,3)-cyclopentanacyclononaphane-5^6-yl)piperazin-1-yl)ethyl)piperidin-1-yl)phenyl)piperidine-2,6-dione] | 5.83 | 91.2 | 98.21 | 5.32 | 99.41 | 7.32 | 5.3 | 91.6
4 | Cc1cc2cc(n1)-c1cnn(C)c1OC[C@H]1CCC(C1)CN1/C(=N/C2=O)Nc2ccc(N3CCN(CCc4cc(F)c(C5CCC(=O)NC5=O)nc4C)CC3)cc21 (stereo partly shown) [Example 78, 3-(5-(2-(4-((7^1R,7^3S,E)-1^1,2^6-dimethyl-3-oxo-5^2,5^3-dihydro-1^1H,5^1H-9-oxa-4-aza-5(2,1)-benzo[d]imidazola-2(2,4)-pyridina-1(4,5)-pyrazola-7(1,3)-cyclopentanacyclononaphane-5^6-yl)piperazin-1-yl)ethyl)-3-fluoro-6-methylpyridin-2-yl)piperidine-2,6-dione] | 4.18 | 65.5 | 92.5 | 16.9 | 100.6 | 1.2 | 3.68 | 87.8
5 | Cc1cc2cc(n1)-c1cnn(C)c1OC[C@H]1CC[C@H](C1)CN1/C(=N/C2=O)Nc2ccc(N3CCN(C4CCN(c5ccc(OC6CCC(=O)NC6=O)nc5C)CC4)CC3)cc21 (stereo partly shown) [Example 137, 3-((5-(4-(4-((7^1R,7^3S,E)-1^1,2^6-dimethyl-3-oxo-5^2,5^3-dihydro-1^1H,5^1H-9-oxa-4-aza-5(2,1)-benzo[d]imidazola-2(2,4)-pyridina-1(4,5)-pyrazola-7(1,3)-cyclopentanacyclononaphane-5^6-yl)piperazin-1-yl)piperidin-1-yl)-6-methylpyridin-2-yl)oxy)piperidine-2,6-dione] | 3.35 | 78.2 | 96.47 | 14.6 | 98.8 | 0.528 | 2.37 | 83.3
6 | COCCn1nc(C)c2c1OC[C@H]1CC[C@H](C1)CN1/C(=N/C(=O)c3cc(C)nc-2c3)Nc2ccc(N3CCN(C4CCN(c5cc(F)c([C@H]6CCC(=O)NC6=O)c(F)c5)CC4)[C@@H](COC)C3)cc21 [Example 160, (R)-3-(2,6-difluoro-4-(4-((R)-4-((7^1R,7^3S,E)-1^1-(2-methoxyethyl)-1^3,2^6-dimethyl-3-oxo-5^2,5^3-dihydro-1^1H,5^1H-9-oxa-4-aza-5(2,1)-benzo[d]imidazola-2(2,4)-pyridina-1(4,5)-pyrazola-7(1,3)-cyclopentanacyclononaphane-5^6-yl)-2-(methoxymethyl)piperazin-1-yl)piperidin-1-yl)phenyl)piperidine-2,6-dione] | 3.01 | 88.2 | 94.19 | 3.02 | 95.87 | 0.59 | 3.08 | 76.5
7 | Cc1cc2cc(n1)-c1c(C)nn(C)c1OC[C@H]1CC[C@H](C1)CN1/C(=N/C2=O)Nc2ccc(N3CCN([C@H]4CCN(c5cc(F)c([C@H]6CCC(=O)NC6=O)c(F)c5)C4)CC3)cc21 (single isomer, unassigned) [Example 186] | 2.92 | 80.4 | 92 | 4.77 | 100.56 | 2.37 | 3.82 | 80

The next compounds have a lower DC50 [1] than those just listed; values first:

Row | DC50 [1] [nM] | Dmax [1] [%] | Imax (%) [2] [%] | IC50 [2] [nM] | Imax (%) [3] [%] | IC50 [3] [nM] | DC50 [4] [nM] | Dmax [4] [%] | Compound
8 | 1.63 | 82.9 | 108.3 | 6.1 | 100.7 | 3 | 16.4 | 95.8 | Cc1cc2cc(n1)-c1cnn(C)c1OC[C@H]1CCC(C1)CN1/C(=N/C2=O)Nc2ccc(N3CCN(C4CCN(c5ccc(OC6CCC(=O)NC6=O)cc5F)CC4)CC3)cc21 (stereo partly shown) [Example 88, 3-(4-(4-(4-((7^1R,7^3S,E)-1^1,2^6-dimethyl-3-oxo-5^2,5^3-dihydro-1^1H,5^1H-9-oxa-4-aza-5(2,1)-benzo[d]imidazola-2(2,4)-pyridina-1(4,5)-pyrazola-7(1,3)-cyclopentanacyclononaphane-5^6-yl)piperazin-1-yl)piperidin-1-yl)-3-fluorophenoxy)piperidine-2,6-dione]
9 | 1.51 | 82 | 98.2 | 7.8 | 101.28 | 1.15 | 5.23 | 74.3 | Cc1cc2cc(n1)-c1c(C)nn(C)c1OC[C@H]1CC[C@H](C1)CN1/C(=N/C2=O)Nc2ccc(N(C)C3CCN(C4CCN(c5cc(F)c([C@H]6CCC(=O)NC6=O)c(F)c5)CC4)CC3)cc21 [Example 143, (R)-3-(2,6-difluoro-4-(4-(methyl((7^1R,7^3S,E)-1^1,1^3,2^6-trimethyl-3-oxo-5^2,5^3-dihydro-1^1H,5^1H-9-oxa-4-aza-5(2,1)-benzo[d]imidazola-2(2,4)-pyridina-1(4,5)-pyrazola-7(1,3)-cyclopentanacyclononaphane-5^6-yl)amino)-[1,4′-bipiperidin]-1-yl)phenyl)piperidine-2,6-dione]
10 | 1.09 | 82 | 98.4 | 7.3 | 100.5 | 0.4 | 3.11 | 75.7 | Cc1cc2cc(n1)-c1cnn(C)c1OC[C@H]1CCC(C1)CN1/C(=N/C2=O)Nc2ccc(N3CCN(C4(CO)CCN(c5ccc(C6CCC(=O)NC6=O)nc5C)CC4)CC3)cc21 (stereo partly shown) [Example 114, 3-(5-(4-(4-((7^1R,7^3S,E)-1^1,2^6-dimethyl-3-oxo-5^2,5^3-dihydro-1^1H,5^1H-9-oxa-4-aza-5(2,1)-benzo[d]imidazola-2(2,4)-pyridina-1(4,5)-pyrazola-7(1,3)-cyclopentanacyclononaphane-5^6-yl)piperazin-1-yl)-4-(hydroxymethyl)piperidin-1-yl)-6-methylpyridin-2-yl)piperidine-2,6-dione]
11 | 0.61 | 60.9 | 103 | 0.2 | 100.6 | 0.2 | 0.55 | 90 | COC[C@@H]1CN(c2ccc3c(c2)N2C[C@@H]4CC[C@H](COc5c(cnn5C)-c5cc(cc(C)n5)C(=O)/N=C/2N3)C4)CCN1CC1CN(c2ccc3c(c2)CN(C2CCC(=O)NC2=O)C3=O)C1 (stereo partly drawn) [Example 63, 3-(5-(3-(((S)-4-((7^1R,7^3S,E)-1^1,2^6-dimethyl-3-oxo-5^2,5^3-dihydro-1^1H,5^1H-9-oxa-4-aza-5(2,1)-benzo[d]imidazola-2(2,4)-pyridina-1(4,5)-pyrazola-7(1,3)-cyclopentanacyclononaphane-5^6-yl)-2-(methoxymethyl)piperazin-1-yl)methyl)azetidin-1-yl)-1-oxoisoindolin-2-yl)piperidine-2,6-dione]
